Reference: patent US7214668B2, “Phosphonic acid based prodrugs of PMEA and its analogues” (Metabasis Therapeutics, Inc., priority 2002, dated 2007)
“And” between values parts separate entries of the source, which are not always exact repeats. Identical values can stand only once.

Columns and labels:
[1] = test system: freshly isolated rat hepatocytes; test: Hepatotoxicity parameters in isolated normal and dexamethasone-induced rat hepatocytes
Method: Normal fed Sprague-Dawley rats weighing 280–310 g were administered dexamethasone intraperitoneally at 50 mg/kg once a day for four days. Dexamethasone was purchased from Sigma (lot#119H1328) and formulated as a suspension in corn oil (Sigma lot#107H1649) at 50 mg/mL. On the fifth day rats were used for hepatocyte isolations. […] Effects on glutathione levels were assessed by the DTNB (Ellman's reagent) method and viability was determined by the trypan blue exclusion assay and hepatic enzyme leakage assays (LDH, AST). […] Both assays were adapted from the protocol insert for a test tube assay to a microtiter plate assay.

[2] = Tissue distribution of PMEA equivalents after oral tritiated Compound 4 and bis POM PMEA in rats
Method: Total tritium counts were analyzed in solubilized samples of liver organ, kidney, plasma, urine, red blood cells, small intestine, as well as small intestine contents and feces obtained at various time points over 24 hours. Liver organ specificity was assessed by comparison of the temporal profiles of total tritium in liver organ versus kidney, small intestine, plasma, and red blood cells. Metabolite profiles in perchloric acid extracts of liver organ, kidney, small intestine, feces and urine were analyzed by HPLC.

[3] = test system: liver microsomes isolated from rats induced with dexamethasone; test: In vitro activation of PMEA prodrug analogues to PMEA by rat liver microsomes; conditions: 1 mg/mL microsomes, 2 mM NADPH, 5 minutes, 37° C., PMEA formation
Method: PMEA prodrug analogues were tested for activation to PMEA in reactions catalyzed by the microsomal fraction of rat liver.
Prodrugs (25 and 250 μM) were tested for activation by liver microsomes isolated from rats induced with dexamethasone to enhance CYP3A4 activity (Human Biologics Inc., Phoenix Ariz.). Reactions were conducted in 0.1 M KH2PO4, pH 7.4, in the presence of 2 mM NADPH and liver microsomes (1 mg/mL). Reaction mixtures were incubated for 5 minutes in an Eppendorf Thermomixer 5436 (37° C., speed 6). Reactions were terminated by the addition of 1.5 volumes of methanol. The resulting extracts were clarified by centrifugation at 14,000 rpm in an Eppendorf microfuge (20 minutes). The supernatants (200 μL) were evaporated under vacuum and heat to dryness before resuspending in 80 μL of buffer A (see below) for PMEA analysis. Spiked standards of 9-[2-(phosophonomethoxy)ethyl]adenine, (PMEA, lot 980397, Metabasis Therapeutics) were prepared in the same reaction mixture and processed in an identical fashion. After resuspension, samples were analyzed by reverse phase HPLC (Altima C-18 column) with use of an ion-pairing buffer (Buffer A) consisting of 10 mM ammonium phosphate, 2.5 mM octyltriethylammonium phosphate, pH 5.5. Samples were loaded in Buffer A and eluted with a methanol gradient from 40% to 80% over 20 minutes. Detection was at 265 nm.

[4] = Method: Intact prodrug and the metabolite 9-[2-(phosophonomethoxy)ethyl]adenine (PMEA) and the respective mono-acids were measured in the plasma at 0 (predose), 0.33, 1, 3, 5, 8, and 12 hrs post dose by HPLC using fluorescence detection. The pharmacokinetic parameters were calculated based on noncompartmental analysis of the concentration-time profile.
[5] = PMEApp accumulation in liver organ following oral administration to normal fasted rats; format: in vivo, rat; conditions: 30 mg/kg PMEA equivalents p.o.
Method: PMEA prodrugs were tested in vivo to identify prodrugs with suitable oral bioavailability and favorable intrahepatic activation rates.
Following oral administration of 30-mg/kg prodrug (PMEA equivalents) to normal, fasted rats, liver organ samples were freeze-clamped at 8 hr. […] The retention time of PMEApp was 18.6 minutes.

[6] = Plasma and urine PMEA following oral Compound 4 and bis POM PMEA in rats; format: in vivo, rat; conditions: 30 mg/kg PMEA equivalents p.o.
Method: PMEA levels (0–12 h) were quantified in plasma by fluorescence HPLC following chloroacetaldehyde derivatization. PMEA levels in urine were quantified 48 hours after treatment.
Plasma drug levels: PMEA was determined in plasma by a modification of the procedure described in the literature (Shaw J P, Louie M S, Krishnamurthy V V, Arimilli M N, Jones R J, Bidgood A M, Lee W A, & Cundy K C, Drug Metabolism and Disposition, 25:362–366 (1997)). Plasma (100 μL) samples were extracted with 2 volumes of 0.1% TFA in acetonitrile. Following centrifugation to remove the precipitate, the supernatant was evaporated to dryness. The dried plasma was reconstituted with 200 μL of the derivatization cocktail consisting of 0.34% chloroacetaldehyde in 100 mM sodium acetate pH 4.5 and incubated at 95° C. for 40 min. The samples were evaporated to dryness and reconstituted with mobile phase for analysis by HPLC. The derivatized PMEA was analyzed by an HPLC system (Hewlett Packard 1090) consisting of a Beckman Ultrasphere ODS 4.6×150 mm (5 μm) column developed with a 20-min gradient of 0–30% acetonitrile in 20 mM potassium phosphate pH 6.2. Fluorescence was monitored at an excitation and emission wavelength of 240 and 420 nm, respectively. The column temperature was 40° C. and the flow rate was 1.5 mL/min. The derivatized PMEA was detected and quantified by comparison to an authentic standard prepared in plasma and eluted at approximately 6 minutes. The limit of quantitation of PMEA, was 0.25 μg/mL.
Urinary excretion studies: The percent excretion of PMEA in urine was assessed by a modification of a previously described procedure (Russell J W, Marrero D, Whiterock V J, & Klunk L J, J Chromatog, 572:321–326 (1991)). Aliquots (0.25–0.5 mL) of urine samples and spiked standards were incubated with an equal volume of 17% (v/v) of 50% chloroacetaldehyde in 100 mM sodium acetate pH 4.5 at 50° C. for 4 hrs. Following centrifugation, the supernatant was analyzed by the HPLC method described in the previous section.

[7] = test system: human liver microsomes; test: Kinetics of activation of Compound 4 to PMEA by human liver microsomes; format: in vitro ADME; conditions: 2 mg/mL human liver microsomes, 10 minutes, 37° C.
Method: The kinetics of activation of Compound 4 by the microsomal fraction of human liver were determined.
Human liver microsomes were purchased from In Vitro Technologies (IVT). Lot 1011 was prepared from a pool of 10 male donors with documented CYP3A4 activity (testosterone 6β-hydroxylation rate of 5.7 nmol/mg/min; IVT). […] Following a 2-minute preincubation at 37° C., reaction mixtures containing 100 mM KH2PO4, 2 mg/mL human liver microsomes, and 0, 30, 60, 100, 200 and 400 μM Compound 4 were started by addition of NADPH to 2 mM. The reaction was carried out for 10 minutes in an Eppendorf Thermomixer 5436 at 37° C., speed 6. […] Reactions were terminated by the addition of 1.5 volumes of methanol and extracts were pelleted at 14,000 rpm in an Eppendorf microfuge for 20 minutes. The supernatants (200 μl) were evaporated under vacuum and heat to dryness before resuspending in 80 μL buffer A (see below). Spiked standards of 9-[2-(phosophonomethoxy)ethyl]adenine, (PMEA, lot 980397, Metabasis Therapeutics) were prepared in the reaction mixture, and quenched and processed in an identical fashion. The ion-pairing buffer (Buffer A) consisted of 10 mM ammonium phosphate and 2.5 mM octyltriethylammonium phosphate, pH 5.5. After resuspension, samples were analyzed for PMEA by reverse phase HPLC. […]

[8] = 1 mM Compound 4, normal rat hepatocytes

Nc1ncnc2c1ncn2CCOCP1(=O)OCCC(c2cccc(Cl)c2)O1 (racemic) [Compound 4]
Viability or hepatic enzyme leakage following glutathione depletion ([1]; 250 μM and 1 mM, hepatocytes from dexamethasone pre-treated rats): no significant changes | Glutathione reduction, 250 μM ([1]; 250 μM, hepatocytes from dexamethasone pre-treated rats, 2-hour incubation): 50% | Glutathione levels, normal hepatocytes [1, 8]: no significant decrease | Viability or hepatic enzyme leakage, normal hepatocytes [1, 8]: no significant changes | Glutathione reduction, 1 mM ([1]; 1 mM, hepatocytes from dexamethasone pre-treated rats, 2-hour incubation): > 95% | Compound 4/bisPOM PMEA (fold difference), Kidney ([2]; 30 mg/kg PMEA equivalents p.o.): 0.26 fold | Compound 4/bisPOM PMEA (fold difference), Liver organ ([2]; 30 mg/kg PMEA equivalents p.o.): 3.1 fold and 3.11 fold | Compound 4/bisPOM PMEA (fold difference), Small Intestine ([2]; 30 mg/kg PMEA equivalents p.o.): 0.04 fold | Fold decrease of exposure of PMEA equivalents in kidney relative to bis POM PMEA ([2]; 30 mg/kg PMEA equivalents p.o.): 3.8 fold | Fold decrease of exposure of PMEA equivalents in small intestine relative to bis POM PMEA ([2]; 30 mg/kg PMEA equivalents p.o.): 25 fold | Dose found as intact prodrug in feces ([2]; after 24 hours, p.o.): ~60% | Activation Rate, Dex. Rat Liver Microsomes, 25 μM ([3]; 25 μM prodrug): 6.2 nmol/min/mg | Activation Rate, Dex. Rat Liver Microsomes, 250 μM ([3]; 250 μM prodrug): 10.9 nmol/min/mg | Plasma half-life of breakdown product 9-{2-[1-{(3-chlorophenyl)-1-propyl-3-hydroxy}phosphonomethoxy]ethyl}adenine ([4]; after 30 mg/kg PMEA equivalents p.o. of prodrug, rats): ~2.1 h | Intact prodrug in plasma ([4]; rat, in vivo): observed in plasma | Rats, PMEApp levels in liver organ @ 8 hr., 30 mg/kg, p.o. [5]: 6.6 nmol/g | AUC0-12h of PMEA in plasma ([6]; fasted rats): 3.5 µM·h | Fold lower plasma PMEA AUC0-12h than following bis POM PMEA ([6]; rats): 6 fold | Fold lower plasma PMEA Cmax than following bis POM PMEA ([6]; rats): 13 fold | Fold lower urinary levels of PMEA than following bis POM PMEA ([6]; rats): 5 fold | Urinary levels of PMEA ([6]; rats, urine 48 hours after treatment): 4.1 % dose | Km [7]: 11 µM
